# Like-named read-outs stand apart in the source and are kept apart here.
# What was measured:
# [1] = Pharmacokinetic Study on Silodosin (Study US011), once daily for seven days, fed state; settings: for Cmax: Day 7, mean (SD)
# [2] = tested on: LUTS associated with benign prostatic hyperplasia; settings: 4 mg silodosin twice daily; cited from earlier work
# symptoms of BPH [3] = assay: Study A: 4 mg Silodosin Twice Daily (KMD-202), Japanese Phase 2 Study; type: in vivo, human; settings: 4 mg twice daily
# Excerpt: Patients were males who were at least 50 years of age and who had at least two of the following three variables classified as moderate, or at least one variable classified as severe: IPSS/AUASS, Qmax and QoL. In addition, the results for IPSS/AUASS for studies A, B, D and E are illustrated in FIGS. 3 to 6, respectively, and the results for Qmax for studies A, B, D and E are illustrated in FIGS. 7 to 10, respectively.
# clinical = settings: male, human
# symptoms of BPH [4] = assay: Study E: 8 mg Silodosin Once Daily (SI04010), U.S. Phase 3 Study; type: in vivo, human; settings: 8 mg once daily
# Excerpt: (§1) In addition, the results for IPSS/AUASS for studies A, B, D and E are illustrated in FIGS. 3 to 6, respectively, and the results for Qmax for studies A, B, D and E are illustrated in FIGS. 7 to 10, respectively.
# [5] = Pharmacokinetic Study on Silodosin (Study 98364); type: in vivo; settings: human, plasma, 4 mg; for concentration at 2 h: Day 7, 2 h; for concentration at 3 h: Day 7, 3 h; for concentration at 4 h: Day 7, 4 h; for concentration at 5 h: Day 7, 5 h; for concentration at 6 h: Day 7, 6 h; for concentration at 8 h: Day 7, 8 h; for concentration at 0 h: Day 7, 0 h (t0); for concentration at 0.5 h: Day 7, 0.5 h; for concentration at 1 h: Day 7, 1 h; for concentration at 12 h: Day 7, 12 h; for concentration at 24 h: Day 7, 24 h
# Excerpt: The remaining two subjects in each dosing cohort received placebo.
# symptoms of BPH [6] = assay: Study B: 4 mg Silodosin Twice Daily (KMD-303), Japanese Phase 3 Study; type: in vivo, human; settings: 4 mg twice daily
# Protocol: as §1, with “Safety was assessed by monitoring adverse events, clinical laboratory measurements, vital signs, and physical exams. […] In” for “In”
# [7] = tested on: symptoms associated with BPH; assay: Efficacy Studies on Silodosin, studies A-E compared (once daily vs twice daily); type: in vivo, human; settings: Tables 6 and 7
# Excerpt: as §1
# [8] = immediate-release dosage form once daily, steady state
# [9] = 4 mg once daily 7 days, individual subjects, read-out: Blood Plasma Concentrations
# [10] = male, 4 mg once daily 7 days, mean, read-out: Blood Plasma Concentrations
# [11] = male, 4 mg twice daily 7 days (simulated from Table 1a), read-out: Estimated Blood Plasma Concentrations
smiles,measurement,setting,value
C[C@H](Cc1cc2c(c(C(N)=O)c1)N(CCCO)CC2)NCCOc1ccccc1OCC(F)(F)F [Silodosin],AUC,"[1]; 4 mg once daily, Day 1, mean",169.0 ng/mL
same,Mean Tmax,"[1]; 4 mg once daily, Day 7",3.0 h
same,AUC,"[1]; 4 mg once daily, Day 7, mean",171 ng/mL
same,t ½,"[1]; 4 mg once daily, Day 7, mean",12.5 h
same,Cmax,[1]; 4 mg once daily,37.2 (18.7) ng/ml
same,AUC,"[1]; 8 mg once daily, Day 1, mean",413.0 ng/mL
same,AUC,"[1]; 8 mg once daily, Day 7, mean",396 ng/mL
same,t ½,"[1]; 8 mg once daily, Day 7, mean",10.6 h
same,Cmax,[1]; 8 mg once daily,73.4 (32.4) ng/ml
same,time after administration at which Cmax is reached,[1]; [8],about 2 hours
same,time after administration at which plasma concentration falls to near baseline,[1]; [8],about 12 hours
same,efficacy in treating LUTS associated with BPH compared with 0.2 mg tamsulosin once daily,[2],comparable efficacy
same,Incidence of Adverse Events: Dizziness,symptoms of BPH [3],2.2 % of patients
same,Incidence of Adverse Events: Orthostatic Hypotension,symptoms of BPH [3],1.1 % of patients
same,Incidence of Adverse Events: Syncope,symptoms of BPH [3],0 % of patients
same,IPSS/AUASS baseline value,symptoms of BPH [3]; Week 0,18.7
same,Maximum Flow Rate baseline value,symptoms of BPH [3]; Week 0,10.70 mL/s
same,Mean Change From Baseline (CFB) in IPSS/AUASS,symptoms of BPH [3]; Week 2,−5.6
same,Mean Change From Baseline (CFB) in IPSS/AUASS,symptoms of BPH [3]; Week 4,−6.6
same,Mean Change From Baseline (CFB) in Maximum Flow Rate,symptoms of BPH [3]; Week 4,1.31 mL/s
same,concentration at 12 h,"clinical; in vivo, 8 mg",9.45 ng/mL
same,Cmax,"clinical; plasma, 4 mg",27.6 ng/mL
same,Tmax,"clinical; plasma, 4 mg",2 h
same,concentration at 0.3 h,"clinical; plasma, 4 mg",0 ng/mL
same,concentration at 8 h,"clinical; plasma, 4 mg",4.83 ng/mL
same,concentration at 12.25 h,"clinical; plasma, 4 mg",1.8 ng/mL
same,concentration at 13 h,"clinical; plasma, 4 mg",9.77 ng/mL
same,concentration at 14 h,"clinical; plasma, 4 mg",31.5 ng/mL
same,concentration at 15 h,"clinical; plasma, 4 mg",32.5 ng/mL
same,concentration at 18 h,"clinical; plasma, 4 mg",7.89 ng/mL
same,concentration at 20 h,"clinical; plasma, 4 mg",5.93 ng/mL
same,half-life,"clinical; plasma, 4 mg",10.7 h
same,Cmax,"clinical; plasma, 8 mg",63.2 ng/mL
same,Tmax,"clinical; plasma, 8 mg",1.5 h
same,concentration at 145.5 h,"clinical; plasma, 8 mg",67.9 ng/mL
same,half-life,"clinical; plasma, 8 mg",11.2 h
same,concentration at 2 h,"clinical; plasma, oral, 8 mg",54.6 ng/mL
same,concentration at 3 h,"clinical; plasma, oral, 8 mg",42.8 ng/mL
same,concentration at 4 h,"clinical; plasma, oral, 8 mg",33.2 ng/mL
same,concentration at 6 h,"clinical; plasma, oral, 8 mg",18.5 ng/mL
same,Incidence of Adverse Events: Dizziness,symptoms of BPH [4],3.9 % of patients
same,Incidence of Adverse Events: Orthostatic Hypotension,symptoms of BPH [4],2.6 % of patients
same,Mean Change From Baseline (CFB) in Maximum Flow Rate,symptoms of BPH [4]; 2-6 hrs after 1st dose,2.9 mL/s
same,IPSS/AUASS baseline value,symptoms of BPH [4]; Week 0,21.2
same,Maximum Flow Rate baseline value,symptoms of BPH [4]; Week 0,8.4 mL/s
same,Mean Change From Baseline (CFB) in IPSS/AUASS,symptoms of BPH [4]; Week 0.5,−4.4
same,Mean Change From Baseline (CFB) in IPSS/AUASS,symptoms of BPH [4]; Week 1,−5.0
same,Mean Change From Baseline (CFB) in Maximum Flow Rate,symptoms of BPH [4]; Week 1,2.9 mL/s
same,Mean Change From Baseline (CFB) in IPSS/AUASS,symptoms of BPH [4]; Week 2,−5.6
same,Mean Change From Baseline (CFB) in Maximum Flow Rate,symptoms of BPH [4]; Week 2,2.9 mL/s
same,Mean Change From Baseline (CFB) in IPSS/AUASS,symptoms of BPH [4]; Week 4,−6.2
same,Mean Change From Baseline (CFB) in Maximum Flow Rate,symptoms of BPH [4]; Week 4,2.7 mL/s
same,Mean Change From Baseline (CFB) in IPSS/AUASS,symptoms of BPH [4]; Week 12,−6.6
same,Mean Change From Baseline (CFB) in Maximum Flow Rate,symptoms of BPH [4]; Week 12,3.1 mL/s
same,Incidence of Adverse Events: Syncope,"symptoms of BPH [4]; one subject, using excluded medication Prazosin",0.4^1 % of patients
same,concentration at 2 h,[5]; [9],35.3 ng/mL
same,concentration at 3 h,[5]; [9],24.4 ng/mL
same,concentration at 4 h,[5]; [9],16.6 ng/mL
same,concentration at 5 h,[5]; [9],13.3 ng/mL
same,concentration at 6 h,[5]; [9],8.9 ng/mL
same,concentration at 8 h,[5]; [9],6.14 ng/mL
same,concentration at 0 h,[5]; [10],4.63 ng/mL
same,concentration at 0.5 h,[5]; [10],5.57 ng/mL
same,concentration at 1 h,[5]; [10],21.2 ng/mL
same,concentration at 2 h,[5]; [10],31.5 ng/mL
same,concentration at 3 h,[5]; [10],18.4 ng/mL
same,concentration at 4 h,[5]; [10],13 ng/mL
same,concentration at 5 h,[5]; [10],10.3 ng/mL
same,concentration at 6 h,[5]; [10],7.26 ng/mL
same,concentration at 8 h,[5]; [10],5.45 ng/mL
same,concentration at 12 h,[5]; [10],3.31 ng/mL
same,concentration at 24 h,[5]; [10],2.01 ng/mL
same,concentration at […],"[5]; male, 4 mg once daily 7 days, Day 7, […], mean, read-out: Blood Plasma Concentrations",4.67 ng/mL
same,concentration at 0 h,[5]; [11],4.63 ng/mL
same,concentration at 0.5 h,[5]; [11],5.57 ng/mL
same,concentration at 1 h,[5]; [11],21.2 ng/mL
same,concentration at 2 h,[5]; [11],31.5 ng/mL
same,concentration at 3 h,[5]; [11],18.4 ng/mL
same,concentration at 4 h,[5]; [11],13 ng/mL
same,concentration at 5 h,[5]; [11],10.3 ng/mL
same,concentration at 6 h,[5]; [11],7.26 ng/mL
same,concentration at 8 h,[5]; [11],5.45 ng/mL
same,concentration at 12 h,[5]; [11],3.31 ng/mL
same,concentration at 12.25 h,"[5]; male, 4 mg twice daily 7 days (simulated from Table 1a), Day 7, 12.25 h, read-out: Estimated Blood Plasma Concentrations",4.67 ng/mL
same,concentration at 13 h,"[5]; male, 4 mg twice daily 7 days (simulated from Table 1a), Day 7, 13 h, read-out: Estimated Blood Plasma Concentrations",21.2 ng/mL
same,concentration at 14 h,"[5]; male, 4 mg twice daily 7 days (simulated from Table 1a), Day 7, 14 h, read-out: Estimated Blood Plasma Concentrations",31.5 ng/mL
same,concentration at 15 h,"[5]; male, 4 mg twice daily 7 days (simulated from Table 1a), Day 7, 15 h, read-out: Estimated Blood Plasma Concentrations",18.4 ng/mL
same,concentration at 16 h,"[5]; male, 4 mg twice daily 7 days (simulated from Table 1a), Day 7, 16 h, read-out: Estimated Blood Plasma Concentrations",13 ng/mL
same,concentration at 17 h,"[5]; male, 4 mg twice daily 7 days (simulated from Table 1a), Day 7, 17 h, read-out: Estimated Blood Plasma Concentrations",10.3 ng/mL
same,concentration at 18 h,"[5]; male, 4 mg twice daily 7 days (simulated from Table 1a), Day 7, 18 h, read-out: Estimated Blood Plasma Concentrations",4.63 ng/mL
same,concentration at 20 h,"[5]; male, 4 mg twice daily 7 days (simulated from Table 1a), Day 7, 20 h, read-out: Estimated Blood Plasma Concentrations",4.67 ng/mL
same,concentration at 24 h,[5]; [11],5.57 ng/mL
same,Incidence of Adverse Events: Dizziness,symptoms of BPH [6],2.3 % of patients
same,Incidence of Adverse Events: Orthostatic Hypotension,symptoms of BPH [6],3.4 % of patients
same,Incidence of Adverse Events: Syncope,symptoms of BPH [6],0 % of patients
same,IPSS/AUASS baseline value,symptoms of BPH [6]; Week 0,17.1
same,Maximum Flow Rate baseline value,symptoms of BPH [6]; Week 0,9.89 mL/s
same,Mean Change From Baseline (CFB) in IPSS/AUASS,symptoms of BPH [6]; Week 1,−3.4
same,Mean Change From Baseline (CFB) in IPSS/AUASS,symptoms of BPH [6]; Week 2,−4.9
same,Mean Change From Baseline (CFB) in Maximum Flow Rate,symptoms of BPH [6]; Week 2,2.23 mL/s
same,Mean Change From Baseline (CFB) in IPSS/AUASS,symptoms of BPH [6]; Week 4,−6.3
same,Mean Change From Baseline (CFB) in Maximum Flow Rate,symptoms of BPH [6]; Week 4,2.18 mL/s
same,Mean Change From Baseline (CFB) in IPSS/AUASS,symptoms of BPH [6]; Week 8,−7.7
same,Mean Change From Baseline (CFB) in Maximum Flow Rate,symptoms of BPH [6]; Week 8,2.38 mL/s
same,Mean Change From Baseline (CFB) in IPSS/AUASS,symptoms of BPH [6]; Week 12,−8.9
same,Mean Change From Baseline (CFB) in Maximum Flow Rate,symptoms of BPH [6]; Week 12,2.33 mL/s
same,"mean changes in IPSS/AUASS and Qmax, 8 mg once daily compared with 4 mg twice daily",[7],comparable

# Reference: US20110319464A1, “METHODS FOR TREATING BENIGN PROSTATIC HYPERPLASIA” (KISSEI PHARMACEUTICAL CO., LTD., priority 2007, published 2011)
